Data taken from ChEMBL document CHEMBL1132786, “Chemical modification of nodulisporic acid A: preliminary structure-activity relationships” (2000).

Test system: Ctenocephalides felis
Test: Systemic activity against adult cat fleas (Ctenocephalides felis)
Format: functional

SMILES | Effective concentration, systemic activity against adult cat fleas
C=C(C)[C@H]1C(=O)c2c3c(cc4c5c(n1c24)[C@@]1(C)C(CC[C@H]2[C@](C)(/C=C/C=C(\C)C(=O)NCc4ccc(Cl)cc4)[C@@H](O)CC[C@@]21C)C5)C1=CC(C)(C)OC(C)(C)C1[C@@H]3O (stereo not given in full) | 0.1 p.p.m.
C=C(C)[C@H]1C(=O)c2c3c(cc4c5c(n1c24)[C@@]1(C)C(CC[C@H]2[C@](C)(/C=C/C=C(\C)C(=O)NC)[C@@H](O)CC[C@@]21C)C5)C1=CC(C)(C)OC(C)(C)C1[C@@H]3O (stereo not given in full) | ~0.1 p.p.m.
C=C(C)[C@H]1C(=O)c2c3c(cc4c5c(n1c24)[C@@]1(C)C(CC[C@H]2[C@](C)(C=O)[C@@H](O)CC[C@@]21C)C5)C1=CC(C)(C)OC(C)(C)C1[C@@H]3O (stereo not given in full) | ~10 p.p.m.
C=C(C)[C@H]1C(=O)c2c3c(cc4c5c(n1c24)[C@@]1(C)C(CC[C@H]2[C@](C)(/C=C/C=C(\C)C(=O)NC(C)(C)C(=O)N(C)C)[C@@H](O)CC[C@@]21C)C5)C1=CC(C)(C)OC(C)(C)C1[C@@H]3O (stereo not given in full) | 0.01 p.p.m.
C=C(C)[C@H]1C(=O)c2c3c(cc4c5c(n1c24)[C@@]1(C)C(CC[C@H]2[C@](C)(/C=C/C=C(\C)C(=O)NC(C)(C)C(=O)OC)[C@@H](O)CC[C@@]21C)C5)C1=CC(C)(C)OC(C)(C)C1[C@@H]3O (stereo not given in full) | 1 p.p.m.
C=C(C)[C@H]1C(=O)c2c3c(cc4c5c(n1c24)[C@@]1(C)C(CC[C@H]2[C@](C)(/C=C/C=C(\C)C(N)=O)[C@@H](O)CC[C@@]21C)C5)C1=CC(C)(C)OC(C)(C)C1[C@@H]3O (stereo not given in full) | ~0.1 p.p.m.
C=C(C)[C@H]1C(=O)c2c3c(cc4c5c(n1c24)[C@@]1(C)C(CC[C@H]2[C@](C)(/C=C/C=C(\C)C(=O)NCCN(C)C)[C@@H](O)CC[C@@]21C)C5)C1=CC(C)(C)OC(C)(C)C1[C@@H]3O (stereo not given in full) | 10 p.p.m.
C=C(C)[C@H]1C(=O)c2c3c(cc4c5c(n1c24)[C@@]1(C)C(CC[C@H]2[C@](C)(/C=C/C=C(\C)C(=O)SCC)[C@@H](O)CC[C@@]21C)C5)C1=CC(C)(C)OC(C)(C)C1[C@@H]3O (stereo not given in full) | >1 p.p.m.
C=C(C)[C@H]1C(=O)c2c3c(cc4c5c(n1c24)[C@@]1(C)C(CC[C@H]2[C@](C)(/C=C/C=C(\C)C(=O)NCCO)[C@@H](O)CC[C@@]21C)C5)C1=CC(C)(C)OC(C)(C)C1[C@@H]3O (stereo not given in full) | 0.5 p.p.m.
C=C(C)[C@H]1C(=O)c2c3c(cc4c5c(n1c24)[C@@]1(C)C(CC[C@H]2[C@](C)(/C=C/C=C(\C)C(=O)O)[C@@H](O)CC[C@@]21C)C5)C1=CC(C)(C)OC(C)(C)C1[C@@H]3O (stereo not given in full) [NOD ACID A] | 1 p.p.m.
C=C(C)[C@H]1C(=O)c2c3c(cc4c5c(n1c24)[C@@]1(C)C(CC[C@H]2[C@](C)(/C=C/C=C(\C)C(=O)N4CCN(C)CC4)[C@@H](O)CC[C@@]21C)C5)C1=CC(C)(C)OC(C)(C)C1[C@@H]3O (stereo not given in full) | 1 p.p.m.
C=C(C)[C@H]1C(=O)c2c3c(cc4c5c(n1c24)[C@@]1(C)C(CC[C@H]2[C@](C)(/C=C/C=C(\C)C(=O)OC)[C@@H](O)CC[C@@]21C)C5)C1=CC(C)(C)OC(C)(C)C1[C@@H]3O (stereo not given in full) | ~10 p.p.m.
C=C(C)[C@H]1C(=O)c2c3c(cc4c5c(n1c24)[C@@]1(C)C(CC[C@H]2[C@](C)(/C=C/C=C(\C)C(=O)NCC(N)=O)[C@@H](O)CC[C@@]21C)C5)C1=CC(C)(C)OC(C)(C)C1[C@@H]3O (stereo not given in full) | 10 p.p.m.
C=C(C)[C@H]1C(=O)c2c3c(cc4c5c(n1c24)[C@@]1(C)C(CC[C@H]2[C@](C)(/C=C/C=C(\C)C(=O)NCCCCCC)[C@@H](O)CC[C@@]21C)C5)C1=CC(C)(C)OC(C)(C)C1[C@@H]3O (stereo not given in full) | ~0.5 p.p.m.
C=C(C)[C@H]1C(=O)c2c3c(cc4c5c(n1c24)[C@@]1(C)C(CC[C@H]2[C@](C)(/C=C/C=C(\C)C(=O)OCCOCCO)[C@@H](O)CC[C@@]21C)C5)C1=CC(C)(C)OC(C)(C)C1[C@@H]3O (stereo not given in full) | 0.1 p.p.m.
C=C(C)[C@H]1C(=O)c2c3c(cc4c5c(n1c24)[C@@]1(C)C(CC[C@H]2[C@](C)(/C=C/C=C(\C)C(=O)N4CCN(C(=O)OCC)CC4)[C@@H](O)CC[C@@]21C)C5)C1=CC(C)(C)OC(C)(C)C1[C@@H]3O (stereo not given in full) | 0.1 p.p.m.
C=C(C)[C@H]1C(=O)c2c3c(cc4c5c(n1c24)[C@@]1(C)C(CC[C@H]2[C@](C)(/C=C/C=C(\C)C(=O)N(C)C)[C@@H](O)CC[C@@]21C)C5)C1=CC(C)(C)OC(C)(C)C1[C@@H]3O (stereo not given in full) | ~0.1 p.p.m.
C=C(C)[C@H]1C(=O)c2c3c(cc4c5c(n1c24)[C@@]1(C)C(CC[C@H]2[C@](C)(/C=C/C=C(\C)C(=O)OCCO)[C@@H](O)CC[C@@]21C)C5)C1=CC(C)(C)OC(C)(C)C1[C@@H]3O (stereo not given in full) | ~1 p.p.m.
C=C(C)[C@H]1C(=O)c2c3c(cc4c5c(n1c24)[C@@]1(C)C(CC[C@H]2[C@](C)(/C=C/C=C(\C)C(=O)N4CCN(S(C)(=O)=O)CC4)[C@@H](O)CC[C@@]21C)C5)C1=CC(C)(C)OC(C)(C)C1[C@@H]3O (stereo not given in full) [NODULISPORAMIDE] | ~0.01 p.p.m.
C=C(C)[C@H]1C(=O)c2c3c(cc4c5c(n1c24)[C@@]1(C)C(CC[C@H]2[C@](C)(/C=C/C=C(\C)C(=O)NCCC(=O)O)[C@@H](O)CC[C@@]21C)C5)C1=CC(C)(C)OC(C)(C)C1[C@@H]3O (stereo not given in full) | >10 p.p.m.
C=C(C)[C@H]1C(=O)c2c3c(cc4c5c(n1c24)[C@@]1(C)C(CC[C@H]2[C@](C)(/C=C/C=C(\C)C(=O)Nc4ccc(F)cc4)[C@@H](O)CC[C@@]21C)C5)C1=CC(C)(C)OC(C)(C)C1[C@@H]3O (stereo not given in full) | 1 p.p.m.
C=C(C)[C@H]1C(=O)c2c3c(cc4c5c(n1c24)[C@@]1(C)C(CC[C@H]2[C@](C)(/C=C/C=C(\C)C(=O)N(CC)CCC)[C@@H](O)CC[C@@]21C)C5)C1=CC(C)(C)OC(C)(C)C1[C@@H]3O (stereo not given in full) | ~0.1 p.p.m.
C=C(C)[C@H]1C(=O)c2c3c(cc4c5c(n1c24)[C@@]1(C)C(CC[C@H]2[C@](C)(/C=C/C=C(\C)C(=O)OCCCO)[C@@H](O)CC[C@@]21C)C5)C1=CC(C)(C)OC(C)(C)C1[C@@H]3O (stereo not given in full) | 10 p.p.m.
C=C(C)[C@H]1C(=O)c2c3c(cc4c5c(n1c24)[C@@]1(C)C(CC[C@H]2[C@](C)(/C=C/C=O)[C@@H](O)CC[C@@]21C)C5)C1=CC(C)(C)OC(C)(C)C1[C@@H]3O (stereo not given in full) | ~10 p.p.m.
C=C(C)[C@H]1C(=O)c2c3c(cc4c5c(n1c24)[C@@]1(C)C(CC[C@H]2[C@](C)(/C=C/C=C(\C)C(=O)N4CCCCC4)[C@@H](O)CC[C@@]21C)C5)C1=CC(C)(C)OC(C)(C)C1[C@@H]3O (stereo not given in full) | ~1 p.p.m.
